Holding throughout (format): cell-based
The test system of one test is PBMC from healthy donors. The test can be described thus: [3H]Thymidine Incorporation (MLR). Particulars: mixed PBMC responder/stimulator 1:1, 4 days. As for the experimental part: [3H]Thymidine Incorporation (MLR)
Freshly isolated PBMC from healthy donors were either used as responders, where the cells were pre-treated with various concentrations of inhibitors (as indicated in the figure legends), or stimulators where the cells were pre-treated with 0.05 mg/ml Mitomycin C for 20 min. Stimulator cells were washed twice with RPMI 1640 and mixed with responder PBMCs at a 1:1 ratio, totaling 2×10^5 cells/well in quadruplicate in a 96-well U-bottom tissue culture plates (Falcon). Cells were cultured in complete RPMI 1640 (supplemented with 10% FBS, 1 mM sodium pyruvate, and 100 IU/ml penicillin-streptomycin, 0.01M HEPES and 55 μM β-ME [Invitrogen]) for 4 days at 37° C. in 5% CO2. Cultures were pulsed with 0.5 μCi [3H]-thymidine (PerkinElmer) during the last 6 hrs of culture. Cells were harvested on filter plates using a 96-well plate harvester (PerkinElmer), and the incorporation of [3H]-thymidine was measured as cpm in a Topcount Microplate scintillation counter (PerkinElmer). Stimulator cells alone or responder cells alone were set up in parallel as controls.
On the technique in general: Uptake of a labelled nucleoside into DNA is a usual measure of proliferation.

Test [1] relates to T cell IL-2 production in human whole blood. The test can be described thus: Human Whole Blood Assay (inhibition of T cell IL-2 production). Particulars: 10 μM Thapsigargin overnight, plasma IL-2 by AlphaLISA, read-out: HWB. The protocol: Inhibition of T cell IL-2 production CRAC compounds were tested in human whole blood from normal donors. 200 μl of human whole blood was aliquoted into each well of a round bottom 96 well plate. Concentration-response curves were generated for test compounds and CsA (as controls) by performing serial dilutions of the compounds and incubating each concentration in a single well for 30 min (experiment was performed in triplicate). Following incubation, the blood was stimulated with 10 μM Thapsigargin (SIGMA) overnight at 37° C. IL-2 concentrations in the plasma were determined by AlphaLISA IL-2 assay (Perkin Elmer). Data analysis was performed using GraphPad PRISMS.
On the technique in general: In Alpha technology, singlet oxygen from a donor bead excites a nearby acceptor bead.

Test [2] concerns IL-2 production in Jurkat cell (ATCC). The experiment in a line: Jurkat IL-2 Production Assay. Particulars: Jurkat cells, 18-20 h incubation, serum/stimulant variant (1% FBS/PHA or 30% FBS/PMA+ionomycin) not given. The protocol: Jurkat IL-2 Production Assay Cell: Jurkat cell (ATCC) was grown in RPMI 1640 with 10% FBS and 1% penicillin/streptomycin. The cell density was kept at 1.2˜1.8×10^6/mL in culture flask before seeding into culture plate, and the cell density in the plate was 0.5×10^6/2004/well. Culture Media: RPMI 1640 with 1% FBS or 30% FBS for high serum assay. Test Compound: Serial dilution was done in 100% DMSO, and intermediate dilution was done with RPMI 1640 medium with 1% FBS. The DMSO final concentration in culture well was 0.25%. Stimulant: PHA (Sigma#L9017-10MG) was used for the assay with 1% FBS in culture medium, and added after 10 minutes exposure of cell to compound/DMSO. The PHA final concentration in culture well was 5 μg/mL. PMA (Sigma# P-8139 5MG)/Ionomycin (Sigma# I0634-5MG) was used for the assay with 30% FBS in culture medium, and added at same time point as the 1% FBS culture assay. The final concentration of PMA was 50 ng/mL, and Ionomycin final concentration was 500 ng/mL. Incubation: At 37° C. with 5% CO2 and 95% humidity for 18 h˜20 h. IC50: IC50 was calculated with the data analysis software XLfit4, General Pharmacology model 251.

Read-outs that look alike come from different tables or passages of the source.

`CCc1sc(-c2cccnc2)nc1-c1ccc2c(c1)OCC(c1c(F)cccc1F)N2` (stereo not shown) [Example 14, 3-(2,6-Difluoro-phenyl)-7-(5-ethyl-2-pyridin-3-yl-thiazol-4-yl)-3,4-dihydro-2H-benzo[1,4]oxazine]: the results for the IC50 (in the test with PBMC from healthy donors; in test [1] (T-cell); in test [2] (Homo sapiens)) were 100 nM, 520 nM and 30 nM, respectively.
Consider `CCn1nc(C(F)(F)F)cc1-c1ccc2c(c1)OCC(c1c(F)cccc1F)N2` (stereo not shown) [Example 6, 3-(2,6-Difluoro-phenyl)-7-(2-ethyl-5-trifluoromethyl-2H-pyrazol-3-yl)-3,4-dihydro-2H-benzo[1,4]oxazine], for which the IC50 in the test on PBMC from healthy donors was found to be 110 nM; in test [1] (T-cell), 510 nM; in test [2] (Homo sapiens), 20 nM.
Taken in the same sequence, the figures for `CCc1sc(-c2ccncc2)nc1-c1ccc2c(c1)OCC(c1c(F)cccc1F)N2` (stereo not shown) [Example 17, 3-(2,6-Difluoro-phenyl)-7-(5-ethyl-2-pyridin-4-yl-thiazol-4-yl)-3,4-dihydro-2H-benzo[1,4]oxazine] were 440 nM, 320 nM and 20 nM.
Taken in the same sequence, the figures for `CCc1sc(-c2cnccn2)nc1-c1ccc2c(c1)OCC(c1c(F)cccc1F)N2` (stereo not shown) [Example 16, 3-(2,6-difluorophenyl)-7-(5-ethyl-2-(pyrazin-2-yl)thiazol-4-yl)-3,4-dihydro-2H-benzo[b][1,4]oxazine] were 180 nM, 870 nM and 20 nM.
`Cc1sc(-c2cccnc2)nc1-c1ccc2c(c1)OCC(c1c(F)cccc1Cl)N2` (stereo not shown) [Example 32, 3-(2-Chloro-6-fluoro-phenyl)-7-(5-methyl-2-pyridin-3-yl-thiazol-4-yl)-3,4-dihydro-2H-benzo[1,4]oxazine]: the IC50 worked out at 580 nM in test [1] (T-cell) and 50 nM in test [2] (Homo sapiens).
For `Cc1sc(-c2ccccn2)nc1-c1ccc2c(c1)OCC(c1c(F)cccc1Cl)N2` (stereo not shown) [Example 31, 3-(2-Chloro-6-fluoro-phenyl)-7-(5-methyl-2-pyridin-2-yl-thiazol-4-yl)-3,4-dihydro-2H-benzo[1,4]oxazine], in that order: 3550 nM and 140 nM.
For `Cc1cc(C(F)(F)F)ccc1-c1ccc2c(c1)OCC(c1c(F)cccc1Cl)N2` (stereo not shown) [Example 29, 3-(2-Chloro-6-fluoro-phenyl)-7-(2-methyl-4-trifluoromethyl-phenyl)-3,4-dihydro-2H-benzo[1,4]oxazine], the IC50 in test [1] (T-cell) amounted to 5330 nM; in test [2] (Homo sapiens) it was 160 nM.
Taken in the same sequence, the figures for `CCn1nc(-c2cccnc2)nc1-c1ccc2c(c1)OCC(c1c(F)cccc1F)N2` (stereo not shown) [Example 10, 3-(2,6-Difluoro-phenyl)-7-(2-ethyl-5-pyridin-3-yl-2H-[1,2,4]triazol-3-yl)-3,4-dihydro-2H-benzo[1,4]oxazine] were 510 nM and 90 nM.
On to `CCn1nc(-c2cccnc2)cc1-c1ccc2c(c1)OCC(c1c(F)cccc1F)N2` (stereo not shown) [Example 7, 3-(2,6-Difluoro-phenyl)-7-(2-ethyl-5-pyridin-3-yl-2H-pyrazol-3-yl)-3,4-dihydro-2H benzo[1,4]oxazine], for which the IC50 was determined as 330 nM with PBMC from healthy donors, 320 nM in test [1] (T-cell) and 70 nM in test [2] (Homo sapiens).
`CCc1sc(-c2cc(C)on2)nc1-c1ccc2c(c1)OCC(c1c(F)cccc1F)N2` (stereo not shown) [Example 20, 3-(2,6-difluorophenyl)-7-(5-ethyl-2-(5-methylisoxazol-3-yl)thiazol-4-yl)-3,4-dihydro-2H-benzo[b][1,4]oxazine]: the IC50 in the test with PBMC from healthy donors is 430 nM; in test [1] (T-cell), 360 nM; in test [2] (Homo sapiens), 30 nM.
Take “(R)-3-(2,6-Difluoro-phenyl)-7-(2-methyl-4-trifluoromethyl-phenyl)-3,4-dihydro-2H-benzo[1,4]oxazine or (S)-3-(2,6-Difluoro-phenyl)-7-(2-methyl-4-trifluoromethyl-phenyl)-3,4-dihydro-2H-benzo[1,4]oxazine [Example 2]”: the IC50 is 3160 nM in test [1] and 80 nM in test [2].
With `Cc1sc(-c2cccnc2)nc1-c1ccc2c(c1)OCC(c1c(F)cccc1F)N2` (stereo not shown) [Example 12, 3-(2,6-Difluoro-phenyl)-7-(5-methyl-2-pyridin-3-yl-thiazol-4-yl)-3,4-dihydro-2H-benzo[1,4]oxazine], the IC50 in the test with PBMC from healthy donors worked out at 190 nM; in test [1] (T-cell), 430 nM; in test [2] (Homo sapiens), 30 nM.
